Reference: US12509437B2, “Substituted thiophene carboxamides and derivatives thereof as microbicides” (Bayer Aktiengesellschaft, priority 2019, dated 2025)

Columns and labels:
[1] = tested on: Colletotrichum lindemuthianum; assay: In vivo preventive test on Colletotrichum lindemuthianum (Anthracnose on bean); settings: Colletotrichum lindemuthianum, 144 h, sprayed 72 hours before inoculation, evaluated 6 days after inoculation, read-out: efficacy; for pest or weed control at 500 ppm: 500 ppm of active ingredient; for pest or weed control at 31 ppm: 31 ppm of active ingredient; for pest or weed control at 125 ppm: 125 ppm of active ingredient
Procedure, shortened: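 Young bean plants were sprayed with compound in acetone/DMSO/Tween diluted in water, then inoculated 72 h later with C. lindemuthianum spores. Incubation was 24 h at 20 °C/100% RH, then 5 days at 20 °C/90% RH. Efficacy scored 6 days post-inoculation: 0% equals solvent-treated control, 100% means no disease.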

Alternaria alternata = Alternaria alternata in vitro cell test; assay type: cell-based; settings: 120 h, 5 days incubation, read-out: efficacy (inhibition of fungal growth; no direct activity); for inhibition at 5 ppm: 5 ppm of active ingredient; for inhibition at 20 ppm: 20 ppm of active ingredient
Procedure, shortened: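 A. alternata spores in glucose/peptone/yeast-extract liquid medium were exposed to DMSO-solubilized compound (final DMSO ≤1%). After 5 days incubation, mycelium growth read spectrometrically; inhibition derived from absorbance relative to fungicide-free control wells.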

[2] = tested on: Pseudomonas syringae pv. tomato; assay: Pseudomonas syringae pv. tomato in vitro cell test; assay type: cell-based; settings: 20 ppm of active ingredient, 24 h of incubation, read-out: efficacy (inhibition of bacteria growth; no direct activity)
Procedure, shortened: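 Bacteria from liquid pre-culture diluted to set OD in LB broth and exposed to compounds dissolved in DMSO (final ≤1%). After 24 h, growth read by absorbance; inhibition derived relative to compound-free control wells.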

Row | Structure (SMILES) | pest or weed control at 500 ppm [1] [%] | inhibition at 5 ppm (Alternaria alternata) [%] | inhibition at 20 ppm (Alternaria alternata) [%] | inhibition at 20 ppm [2] [%] | pest or weed control at 31 ppm [1] [%] | pest or weed control at 125 ppm [1] [%]
1 | COC(=O)C(NC(=O)c1sc(Br)c(Br)c1C)C1CC1 (centres unmarked) [I.032] | 70 to 79 | ≤ 30 | ≤ 30 | ≤ 30 |  | 
2 | CCOC(=O)C1(NC(=O)c2sc(Cl)c(Cl)c2C)CCC1 [I.047] | 90 to 100 | ≤ 30 | ≤ 30 | ≤ 30 | 90 to 100 | 90 to 100
3 | Cc1c(C(=S)NC2(C(=O)O)CC2)sc(Cl)c1Cl [I.060] |  | ≤ 30 | ≤ 30 | ≤ 30 |  | 80 to 89
4 | CCOC(=O)C(C#N)NC(=O)c1sc(Br)c(Br)c1C (centres unmarked) [I.077] | 90 to 100 | ≤ 30 | ≤ 30 | ≤ 30 | 80 to 89 | 80 to 89
5 | Cc1c(C(=O)NC(C(=O)O)C2CC2)sc(Br)c1Br (centres unmarked) [I.080, cyclopropyl{[(4,5-dibromo-3-methyl-2-thienyl)carbonyl]amino}acetic acid] | 70 to 79 | ≤ 30 | ≤ 30 | ≤ 30 |  | 
6 | COC(=O)C(NC(=O)c1sc(Cl)c(Cl)c1C)C1CC1 (centres unmarked) [I.081, methyl cyclopropyl{[(4,5-dichloro-3-methyl-2-thienyl)carbonyl]amino}acetate] | 80 to 89 | ≤ 30 | ≤ 30 | ≤ 30 |  | 
7 | Cc1c(C(=O)NC(C(=O)O)C2CC2)sc(Cl)c1Cl (centres unmarked) [I.095] |  | ≤ 30 | ≤ 30 | ≤ 30 |  | 70 to 79
8 | COC(=O)CC[C@H](NC(=O)c1sc(Cl)c(Cl)c1C)C(=O)OC [I.122] | 80 to 89 | ≤ 30 | ≤ 30 | ≤ 30 | ≥ 70 | 70 to 79
